We go through 63 molecules from patent US7468445B2, “Antigiardial agents and use thereof” (University of Mississippi, priority 2002, dated 2008).

Converted amounts (≈) assume the structure as drawn.

System in one data set: not given
Assay: not given
Conditions: not given
The melting point is the temperature, or range, at which the solid turns liquid. In turn, `O=c1c(-c2ccccc2)coc2c(Cl)c(O)ccc12` [P(A2,B1), 8-Chloro-7-hydroxy-3-phenylchromen-4-one] showed a melting point of 242 to 244 °C. Take `O=c1c(-c2ccccc2)coc2cc(O)c(Br)cc12` [P(A6,B1), 6-Bromo-7-hydroxy-3-phenylchromen-4-one]: the melting point was 296 to 297 °C (dec.). `O=c1c(-c2ccccc2)coc2cc(O)c(Cl)cc12` [P(A5,B1), 6-Chloro-7-hydroxy-3-phenylchromen-4-one]: the melting point fell in the range of 279 to 280 °C. In turn, `O=c1c(-c2ccccc2)coc2c(Br)c(O)ccc12` [P(A3,B1), 8-Bromo-7-hydroxy-3-phenylchromen-4-one] yielded a melting point of 256 to 258 °C.

The test system of another data set is Giardia intestinalis (ATCC #30888). The experiment in a line: Antigiardial biological screening (XTT tetrazolium dye procedure). The class given is cell-based. The conditions noted are these: Giardia duodenalis, ATCC30888; concentration that inhibits giardial growth by 50%, estimated graphically; samples at 10, 3.3 and 1.1 μg/mL, 24 h at 37° C., XTT; NA = inactive; read-out: IC50. As to the method:
Biological Screening. […] Subculturing was done every 48-72 h under a sterile biosafety hood. Tubes were chilled in an ice bath for 10 min. in order to detach the organisms, and 1 mL of cell suspension was added to 14 mL of fresh medium. To carry out the screening, a suspension of Giardia cells was prepared at a concentration of 100,000 cells/mL. 100 μL of the suspension was then added to each well of a Corning 96-well flat-bottomed tissue culture-treated plate. Blank wells received medium only. An additional 125 μL of medium was added to each well, and the plates were incubated at 37° C. for 24 h in an anaerobic chamber filled with nitrogen. […] The plates were further incubated at 37° C. for 24 h. The plates were then processed using a tetrazolium dye (XTT) procedure. Absorbance readings were taken at 450 nm with background at 630 nm subtracted.
As usually defined, the IC50 is the point on the concentration scale where inhibition reaches its midpoint. On to `O=c1c(-c2ccccc2)coc2c(Cl)c(O)ccc12` [P(A2,B1), 8-Chloro-7-hydroxy-3-phenylchromen-4-one], for which the concentration for half-maximal inhibition (IC50) is 1.7 µg/mL (≈ 6.23 µM). `Cc1ncc([N+](=O)[O-])n1CCO` [metronidazole, reference compound]: the IC50 was 1.5 µg/mL (≈ 8.76 µM). In the case of `O=c1c(-c2ccccc2)coc2cc(O)c(Br)cc12` [P(A6,B1), 6-Bromo-7-hydroxy-3-phenylchromen-4-one], the IC50 was 5 µg/mL (≈ 15.8 µM). The same measure, in the same setting: for `O=c1c(-c2ccccc2)coc2c(Br)c(O)ccc12` [P(A3,B1), 8-Bromo-7-hydroxy-3-phenylchromen-4-one] the value was 1.6 µg/mL (≈ 5.05 µM).

The data set is the same for the next values; noted with them: concentration that inhibits giardial growth by 50%, estimated graphically; samples at 10, 3.3 and 1.1 μg/mL, 24 h at 37° C., XTT; NA = inactive.
For `O=c1c(-c2ccc(Cl)cc2)coc2cc(O)c(F)cc12` [P(A4,B8)], the IC50 was 6.4 µg/mL (≈ 22 µM). With `O=c1c(-c2ccc(F)cc2)coc2cc(O)c(F)cc12` [P(A4,B9)], the IC50 was over 10.0 µg/mL. For the molecule `COc1ccc(-c2coc3c(F)c(O)ccc3c2=O)cc1` [P(A1,B11)], the IC50 is under 1.1 µg/mL. With `Cc1ccc(-c2coc3c(Cl)c(O)ccc3c2=O)cc1` [P(A2,B20)], the concentration for half-maximal inhibition (IC50) was over 10.0 µg/mL. On the same count and under the same terms, for `O=c1c(-c2ccc(Cl)cc2)coc2c(F)c(O)ccc12` [P(A1,B8)] the value was over 10.0 µg/mL.

Consider `O=c1c(-c2ccc(F)c(F)c2)coc2cc(O)c(F)cc12` [P(A4,B22)], for which the IC50 was 9.4 µg/mL (≈ 32.2 µM). As for `Cc1ccc(-c2coc3c(F)c(O)ccc3c2=O)cc1` [P(A1,B20)], the IC50 is under 1.1 µg/mL. For the molecule `O=c1c(-c2ccc(Cl)c(Cl)c2)coc2cc(O)c(F)cc12` [P(A4,B21)], the IC50 is over 10.0 µg/mL. Regarding `O=c1c(-c2cc(F)cc(F)c2)coc2c(Cl)c(O)ccc12` [P(A2,B23)], the 50% inhibitory concentration (IC50) is under 1.1 µg/mL.

Take `O=c1c(-c2cccc(Cl)c2)coc2c(Br)c(O)ccc12` [P(A3,B27)]: the IC50 was 1.9 µg/mL (≈ 5.4 µM).

For the molecule `Cc1cccc(-c2coc3cc(O)c(Cl)cc3c2=O)c1` [P(A5,B19)], the IC50 was 2.5 µg/mL (≈ 8.72 µM). `O=c1c(-c2cccc(F)c2)coc2c(Cl)c(O)ccc12` [P(A2,B28)]: the half-maximal inhibitory concentration (IC50) was 5.2 µg/mL (≈ 17.9 µM). `Cc1cccc(-c2coc3c(Cl)c(O)ccc3c2=O)c1` [P(A2,B19)]: the half-inhibitory concentration (IC50) was over 10.0 µg/mL. As to `O=c1c(-c2cccc(Cl)c2)coc2c(Cl)c(O)ccc12` [P(A2,B27)], the half-inhibitory concentration (IC50) was 1.7 µg/mL (≈ 5.54 µM). Consider `O=c1c(-c2ccc(F)c(F)c2)coc2c(F)c(O)ccc12` [P(A1,B22)], for which the IC50 is under 1.1 µg/mL.

Take `O=c1c(-c2cccc(F)c2)coc2cc(O)c(F)cc12` [P(A4,B28)]: the IC50 was 4.3 µg/mL (≈ 15.7 µM). Consider `O=c1c(-c2cc(F)cc(F)c2)coc2cc(O)c(Cl)cc12` [P(A5,B23)], for which the half-inhibitory concentration (IC50) is 6.7 µg/mL (≈ 21.7 µM). `O=c1c(-c2ccc(Cl)c(Cl)c2)coc2cc(O)c(Cl)cc12` [P(A5,B21)]: the concentration for half-maximal inhibition (IC50) is 9.8 µg/mL (≈ 28.7 µM). Same read-out and setting: with `O=c1c(-c2ccccc2)coc2c(F)c(O)ccc12` [P(A1,B1)] the figure was under 1.1 µg/mL. With `O=c1c(-c2ccc(Br)cc2)coc2c(Cl)c(O)ccc12` [P(A2,B17)], the 50% inhibitory concentration (IC50) was 5.7 µg/mL (≈ 16.2 µM). As to `COc1ccc(-c2coc3cc(O)c(F)cc3c2=O)cc1` [P(A4,B11)], the IC50 is over 10.0 µg/mL. Take `O=c1c(-c2ccc(F)cc2)coc2c(F)c(O)ccc12` [P(A1,B9)]: the concentration for half-maximal inhibition (IC50) was over 10.0 µg/mL. With `O=c1c(-c2ccc(F)cc2)coc2c(Br)c(O)ccc12` [P(A3,B9)], the IC50 was 6.8 µg/mL (≈ 20.3 µM). In the case of `CCOc1ccc(-c2coc3c(Cl)c(O)ccc3c2=O)cc1` [P(A2,B18)], the half-inhibitory concentration (IC50) is over 10.0 µg/mL. In the case of `O=c1c(-c2ccc(F)cc2)coc2c(Cl)c(O)ccc12` [P(A2,B9)], the half-maximal inhibitory concentration (IC50) is over 10.0 µg/mL. On to `O=c1c(-c2ccc(Br)cc2)coc2cc(O)c(F)cc12` [P(A4,B17)], for which the IC50 was 9.0 µg/mL (≈ 26.9 µM).

Take `O=c1c(-c2cccc(Cl)c2)coc2cc(O)c(Cl)cc12` [P(A5,B27)]: the IC50 was over 10.0 µg/mL. Turning to `O=c1c(-c2cccc(Br)c2)coc2c(Cl)c(O)ccc12` [P(A2,B26)], the half-maximal inhibitory concentration (IC50) was under 1.1 µg/mL.

As to `COc1ccc(-c2coc3c(Br)c(O)ccc3c2=O)cc1` [P(A3,B11)], the half-inhibitory concentration (IC50) is under 1.1 µg/mL.

For `COc1cccc(-c2coc3c(Cl)c(O)ccc3c2=O)c1` [P(A2,B29)], the IC50 is 4.8 µg/mL (≈ 15.9 µM).

As for `O=c1c(-c2cccc(Cl)c2)coc2c(F)c(O)ccc12` [P(A1,B27)], the IC50 is under 1.1 µg/mL.

For the molecule `O=c1c(-c2ccc(Cl)cc2)coc2c(Br)c(O)ccc12` [P(A3,B8)], the IC50 is 1.9 µg/mL (≈ 5.4 µM).

As to `O=c1c(-c2ccc(Br)cc2)coc2c(F)c(O)ccc12` [P(A1,B17)], the IC50 is over 10.0 µg/mL. For `Cc1ccc(-c2coc3c(Br)c(O)ccc3c2=O)cc1` [P(A3,B20)], the IC50 is 3.9 µg/mL (≈ 11.8 µM).

For `CCOc1ccc(-c2coc3c(Br)c(O)ccc3c2=O)cc1` [P(A3,B10)], the IC50 is 9.3 µg/mL (≈ 25.7 µM). Consider `COc1ccc(-c2coc3c(Cl)c(O)ccc3c2=O)cc1` [P(A2,B11)], for which the IC50 was over 10.0 µg/mL. In the case of `O=c1c(-c2ccc(F)c(F)c2)coc2c(Cl)c(O)ccc12` [P(A2,B22)], the IC50 is 3.7 µg/mL (≈ 12 µM). Regarding `Cc1cccc(-c2coc3c(F)c(O)ccc3c2=O)c1` [P(A1,B19)], the IC50 was under 1.1 µg/mL. On to `O=c1c(-c2cccc(F)c2)coc2cc(O)c(Br)cc12` [P(A6,B28)], for which the half-maximal inhibitory concentration (IC50) is under 1.1 µg/mL.

Regarding `O=c1c(-c2ccc(Br)cc2)coc2c(Br)c(O)ccc12` [P(A3,B17)], the IC50 is over 10.0 µg/mL. On to `Cc1cccc(-c2coc3c(Br)c(O)ccc3c2=O)c1` [P(A3,B19)], for which the IC50 is under 1.1 µg/mL.

For the molecule `CCOc1ccc(-c2coc3c(F)c(O)ccc3c2=O)cc1` [P(A1,B18)], the IC50 was 8.8 µg/mL (≈ 29.3 µM).

As to `Cc1ccc(-c2coc3cc(O)c(Br)cc3c2=O)cc1` [P(A6,B20)], the IC50 is over 10.0 µg/mL. With `O=c1c(-c2cccc(F)c2)coc2c(Br)c(O)ccc12` [P(A3,B28)], the IC50 is under 1.1 µg/mL. With `O=c1c(-c2ccc(Br)cc2)coc2cc(O)c(Cl)cc12` [P(A5,B17)], the IC50 was over 10.0 µg/mL. In the case of `Cc1cccc(-c2coc3cc(O)c(F)cc3c2=O)c1` [P(A4,B19)], the IC50 is under 1.1 µg/mL.

On to `Cc1ccc(-c2coc3cc(O)c(F)cc3c2=O)cc1` [P(A4,B20)], for which the half-maximal inhibitory concentration (IC50) is over 10.0 µg/mL. Same read-out and setting: with `O=c1c(-c2ccccc2)coc2cc(O)c(F)cc12` [P(A4,B1)] the figure was 6.2 µg/mL (≈ 24.2 µM); with `O=c1c(-c2ccc(Cl)cc2)coc2c(Cl)c(O)ccc12` [P(A2,B8)], 4.5 µg/mL (≈ 14.7 µM).

The data set is the same for the next values; noted with them: discussion of the IC50 table.
With `COc1ccc(-c2coc3c(F)c(O)ccc3c2=O)cc1` [P(A1,B11)], the “antigiardial activity/potency in words (SAR discussion)” value (“antigiardial activity/potency in words” below) is given as “enhanced potency”. As to `O=c1c(-c2ccc(-c3ccccc3)cc2)coc2cc(O)c(Cl)cc12` [P(A5,B16)], the “antigiardial activity/potency in words” value was “less activity”.

As to `O=c1c(-c2ccc(-c3ccccc3)cc2)coc2cc(O)c(F)cc12` [P(A4,B16)], the “antigiardial activity/potency in words” value is given as “less activity”. For `O=c1c(-c2ccc(-c3ccccc3)cc2)coc2c(F)c(O)ccc12` [P(A1,B16)], the “antigiardial activity/potency in words” value is “less activity”. Take `COc1ccc(-c2coc3c(Br)c(O)ccc3c2=O)cc1` [P(A3,B11)]: the “antigiardial activity/potency in words” value is “enhanced potency”. Regarding `O=c1c(-c2ccc(-c3ccccc3)cc2)coc2cc(O)c(Br)cc12` [P(A6,B16)], the “antigiardial activity/potency in words” value was “less activity”. Regarding `Cc1cccc(-c2coc3c(F)c(O)ccc3c2=O)c1` [P(A1,B19)], the “antigiardial activity/potency in words” value is recorded as “enhanced potency”.

As for `O=c1c(-c2cccc(F)c2)coc2cc(O)c(Br)cc12` [P(A6,B28)], the “antigiardial activity/potency in words” value is reported as “enhanced potency”. For `Cc1cccc(-c2coc3c(Br)c(O)ccc3c2=O)c1` [P(A3,B19)], the “antigiardial activity/potency in words” value is recorded as “enhanced potency”. In the case of `O=c1c(-c2cccc(F)c2)coc2c(Br)c(O)ccc12` [P(A3,B28)], the “antigiardial activity/potency in words” value is on record as “enhanced potency”. With `Cc1cccc(-c2coc3cc(O)c(F)cc3c2=O)c1` [P(A4,B19)], the “antigiardial activity/potency in words” value is “enhanced potency”.

The test system of another data set is Giardia lamblia.
Assay: not given
Conditions: biological evaluation of natural products; formononetin and pseudobaptigenin in vitro; cited from earlier work.
As to `O=c1c(-c2ccc3c(c2)OCO3)coc2cc(O)ccc12` [pseudobaptigenin], the “antigiardial activity” value is recorded as “potent antigiardial activity”. Regarding `O=c1c(O)c(-c2ccc(O)c(O)c2)oc2cc(O)cc(O)c12` [quercetin], the “antigiardial activity” value is on record as “exhibit antigiardial activity”. For `O=c1c(O)c(-c2ccc(O)cc2)oc2cc(O)cc(O)c12` [kaempferol], the “antigiardial activity” value is given as “exhibit antigiardial activity”. Regarding geranins A [geranin A], the “antigiardial activity” value is “exhibit antigiardial activity”. As for `COc1ccc(-c2coc3cc(O)ccc3c2=O)cc1` [formononetin], the “antigiardial activity” value was “potent antigiardial activity”.
